Test results from patent publication US20260009064A1, “STEROL PRODUCTION IN YEAST” (APIX BIOSCIENCES, priority 2021, published 2026).

System: managed honeybee colonies
Assay: Artificial diets with dried engineered yeast powder fed to managed honeybee colonies (APIDEA hives, three months)
Assay type: in vivo
Settings: inferred from platform strain diet versus wild-type yeast diet
Protocol: Yeast strains ST4842 (wild-type, containing ergosterol), ST11005 (platform strain engineered to produce tetrahymanol, containing ergosterol and tetrahymanol) and ST12178 (mixed sterol producing strain producing desired phytosterols and tetrahymanol) were cultivated by 5-L fed-batch fermentation as described above. At the end of fermentation, the yeast biomass was recovered from the culture by centrifugation (4000×g, 20 min) and washed with deionized water. The biomass was heat-inactivated and dried (60° C. for a minimum of 24 h). The dried material was ground to a fine powder and stored at −20° C. until further use.
The yeast biomass was then incorporated at 20% w/w into a holidic diet designed to provide additional protein, lipid, sugar, vitamins and minerals. […]
Honeybee colonies were maintained for three months in APIDEA hives (Styrofoam queen mating mini nucleus hives, (Paynes Southdown Bee Farms Ltd, West Sussex. UK) made up of one brood box with five frames and a top feeder with a hole for petty delivery. Hives were maintained within a closed glasshouse environment designed to negate bee escape. Hives were distributed across two rooms of the glasshouse, with varying orientation. Feeders with 30% w/v sugar solution and water were distributed inside the glasshouse and replenished as required. Regular temperature and humidity measurements were recorded on a datalogger. […]

CC1(C)CCC[C@]2(C)[C@H]3CC[C@@H]4[C@@]5(C)CC[C@H](O)C(C)(C)[C@@H]5CC[C@@]4(C)[C@]3(C)CC[C@@H]12 [tetrahymanol]
adverse effects in honeybee colonies: does not have adverse effects
